{"source": "PubChem BioAssay AID1259409", "about": "(Chemical Carcinogenesis Research Information System (CCRIS), 2018)", "origin": "cited, not measured here", "tested_on": "rodent chemically induced tumor inhibition, incidence and multiplicity", "experiment": "CCRIS tumor inhibitor studies", "settings": "Dose [Inhibitor]: 0, Route [Inhibitor]: ORAL", "source_text": "The CCRIS database contains chemical records with carcinogenicity, mutagenicity, tumor promotion, and tumor inhibition test results. It was developed by the National Cancer Institute (NCI). Data are derived from studies cited in primary journals, current awareness tools, NCI reports, and other sources. Test results have been reviewed by experts in carcinogenesis and mutagenesis.\nCCRIS provides historical information from the years 1985 - 2011. It is no longer updated.\nThis is an archive assay for CCRIS tumor inhibitor studies."}
{"smiles": "Oc1cccc(O)c1", "values": [{"measurement": "tumour outcome (control, treated, inhibition, significance)", "setting": "Carcinogen: N-BIS(2-HYDROXYPROPYL)NITROSAMINE, 53609-64-6, 0.8% IN DIET FOR 30 WK BEGINNING POST CARCINOGEN TREATMENT (STUDY DURATION: 32 WK), Species: RAT, Strain/Sex: F344/MALE, Target Tissue: Type of Lesion: LUNG: ADENOMA, Dose [Carcinogen]: 0.1% IN DRINKING WATER FOR 2 WK, Promoter: NONE USED", "value": "100%, 90%, 10%, not calculated"}, {"measurement": "tumour outcome (control, treated, inhibition, significance)", "setting": "Carcinogen: N-BIS(2-HYDROXYPROPYL)NITROSAMINE, 53609-64-6, 0.8% IN DIET FOR 30 WK BEGINNING POST CARCINOGEN TREATMENT (STUDY DURATION: 32 WK), Species: RAT, Strain/Sex: F344/MALE, Target Tissue: Type of Lesion: THYROID: ADENOMA, Dose [Carcinogen]: 0.1% IN DRINKING WATER FOR 2 WK, Promoter: NONE USED", "value": "20%, 30%, -50%, not calculated"}, {"measurement": "tumour outcome (control, treated, inhibition, significance)", "setting": "Carcinogen: N-BIS(2-HYDROXYPROPYL)NITROSAMINE, 53609-64-6, 0.8% IN DIET FOR 30 WK BEGINNING POST CARCINOGEN TREATMENT (STUDY DURATION: 32 WK), Species: RAT, Strain/Sex: F344/MALE, Target Tissue: Type of Lesion: THYROID: CARCINOMA, Dose [Carcinogen]: 0.1% IN DRINKING WATER FOR 2 WK, Promoter: NONE USED", "value": "20%, 25%, -25%, not calculated"}, {"measurement": "tumour outcome (control, treated, inhibition, significance)", "setting": "Carcinogen: N-ETHYL-N-HYDROXYETHYLNITROSAMINE, 13147-25-6, 0.8% IN DIET FOR 36 WK BEGINNING 1 WK POST CARCINOGEN TREATMENT (STUDY DURATION: 40 WK), Species: RAT, Strain/Sex: WISTAR/MALE, Target Tissue: Type of Lesion: KIDNEY: MICROADENOMA, Dose [Carcinogen]: 0.1% IN DRINKING WATER FOR 3 WK, Promoter: NONE USED", "value": "11/17 (65%), 12/16 (75%), -15%, not significant"}, {"measurement": "tumour outcome (control, treated, inhibition, significance)", "setting": "Carcinogen: N-ETHYL-N-HYDROXYETHYLNITROSAMINE, 13147-25-6, 0.8% IN DIET FOR 36 WK BEGINNING 1 WK POST CARCINOGEN TREATMENT (STUDY DURATION: 40 WK), Species: RAT, Strain/Sex: WISTAR/MALE, Target Tissue: Type of Lesion: KIDNEY: RENAL CELL TUMOR, Dose [Carcinogen]: 0.1% IN DRINKING WATER FOR 3 WK, Promoter: NONE USED", "value": "14/17 (82%), 13/16 (81%), 1%, not significant"}, {"measurement": "tumour outcome (control, treated, inhibition, significance)", "setting": "Carcinogen: N-ETHYL-N-HYDROXYETHYLNITROSAMINE, 13147-25-6, 0.8% IN DIET FOR 36 WK BEGINNING 1 WK POST CARCINOGEN TREATMENT (STUDY DURATION: 40 WK), Species: RAT, Strain/Sex: WISTAR/MALE, Target Tissue: Type of Lesion: LIVER: HEPATOCELLULAR ADENOMA, Dose [Carcinogen]: 0.1% IN DRINKING WATER FOR 3 WK, Promoter: NONE USED", "value": "10/17 (59%), 7/16 (44%), 25%, not significant"}, {"measurement": "tumour outcome (control, treated, inhibition, significance)", "setting": "Carcinogen: N-ETHYL-N-HYDROXYETHYLNITROSAMINE, 13147-25-6, 0.8% IN DIET FOR 36 WK BEGINNING 1 WK POST CARCINOGEN TREATMENT (STUDY DURATION: 40 WK), Species: RAT, Strain/Sex: WISTAR/MALE, Target Tissue: Type of Lesion: LIVER: HEPATOCELLULAR CARCINOMA, Dose [Carcinogen]: 0.1% IN DRINKING WATER FOR 3 WK, Promoter: NONE USED", "value": "7/17 (41%), 3/16 (19%), 54%, not significant"}, {"measurement": "tumour outcome (control, treated, inhibition, significance)", "setting": "Carcinogen: N-NITROSOBIS(2-OXOPROPYL)AMINE, 60599-38-4, 1.5% IN DIET FOR 16 WK BEGINNING 2 WK POST CARCINOGEN TREATMENT (STUDY DURATION: 20 WK), Species: HAMSTER, Strain/Sex: SYRIAN/FEMALE, Target Tissue: Type of Lesion: GALL BLADDER: ADENOMA, Dose [Carcinogen]: 70 MG/KG IN SALINE FOLLOWED 2 WK LATER BY SECOND TREATMENT", "value": "9/18 (50%), 10/16 (62%), -24%, not calculated"}, {"measurement": "tumour outcome (control, treated, inhibition, significance)", "setting": "Carcinogen: N-NITROSOBIS(2-OXOPROPYL)AMINE, 60599-38-4, 1.5% IN DIET FOR 16 WK BEGINNING 2 WK POST CARCINOGEN TREATMENT (STUDY DURATION: 20 WK), Species: HAMSTER, Strain/Sex: SYRIAN/FEMALE, Target Tissue: Type of Lesion: GALL BLADDER: CARCINOMA, Dose [Carcinogen]: 70 MG/KG IN SALINE FOLLOWED 2 WK LATER BY SECOND TREATMENT", "value": "1/18 (6%), 1/16 (6%), 0%, not significant"}, {"measurement": "tumour outcome (control, treated, inhibition, significance)", "setting": "Carcinogen: N-NITROSOBIS(2-OXOPROPYL)AMINE, 60599-38-4, 1.5% IN DIET FOR 16 WK BEGINNING 2 WK POST CARCINOGEN TREATMENT (STUDY DURATION: 20 WK), Species: HAMSTER, Strain/Sex: SYRIAN/FEMALE, Target Tissue: Type of Lesion: LIVER: CHOLANGIOCARCINOMA, Dose [Carcinogen]: 70 MG/KG IN SALINE FOLLOWED 2 WK LATER BY SECOND TREATMENT", "value": "16/18 (89%), 12/16 (75%), 16%, not calculated"}, {"measurement": "tumour outcome (control, treated, inhibition, significance)", "setting": "Carcinogen: N-NITROSOBIS(2-OXOPROPYL)AMINE, 60599-38-4, 1.5% IN DIET FOR 16 WK BEGINNING 2 WK POST CARCINOGEN TREATMENT (STUDY DURATION: 20 WK), Species: HAMSTER, Strain/Sex: SYRIAN/FEMALE, Target Tissue: Type of Lesion: LIVER: NEOPLASTIC NODULE, Dose [Carcinogen]: 70 MG/KG IN SALINE FOLLOWED 2 WK LATER BY SECOND TREATMENT", "value": "18/18 (100%), 16/16 (100%), 0%, not significant"}, {"measurement": "tumour outcome (control, treated, inhibition, significance)", "setting": "Carcinogen: N-NITROSOBIS(2-OXOPROPYL)AMINE, 60599-38-4, 1.5% IN DIET FOR 16 WK BEGINNING 2 WK POST CARCINOGEN TREATMENT (STUDY DURATION: 20 WK), Species: HAMSTER, Strain/Sex: SYRIAN/FEMALE, Target Tissue: Type of Lesion: PANCREAS: ADENOCARCINOMA, Dose [Carcinogen]: 70 MG/KG IN SALINE FOLLOWED 2 WK LATER BY SECOND TREATMENT", "value": "14/18 (78%), 10/16 (63%), 19%, not calculated"}]}
